Experimental data taken from article PMC7917659, “Selective Cytotoxicity of Complexes with N,N,N-Donor Dipodal Ligand in Tumor Cells” (International Journal of Molecular Sciences, 2021).
“Also recorded” adds a separate entry of the source. Read-outs that look alike come from different tables or passages of the source.

Key:
CHO-K1 cells [1] = assay: Antiproliferative MTT assay, noncancerous cells; format: cell-based; conditions: 72 h exposure, M ± SD, n = 3
Hep G2 cells [2] = assay: Antiproliferative MTT assay, tumour cells; format: cell-based; conditions: for IC50: MTT assay, 72 h exposure, M ± SD, n = 3, read-out: IC50 for Cancer HEP G2 Cells
Hep G2 cells [3] = tested on: Hep G2 cells; parameters: method as in doi:10.1039/C6RA06439F; conditions: read-out: IC50 for Cancer HEP G2 Cells, cited from earlier work
CHO-K1 cells [4] = conditions: read-out: IC50 for Noncancerous CHO-K1 Cells, cited from earlier work
[5] = tested on: matrix metalloproteinase-9 (MMP-9) mRNA; assay: Real-Time PCR (qPCR) gene expression in Hep G2 cells, MMP-9; format: cell-based, human
Experimental: (§1) Hep G2 cells were used to establish cell cultures (2 × 10^4 cells/well). After 24 h of incubation with chemicals at concentration of 50 µM/L or with 1% v/v DMSO (control), the cells were suspended in RL buffer (EURx, Gdansk, Poland) and the total RNA was extracted using Universal RNA purification Kit (EURx, Gdansk, Poland), according to the manufacturer’s protocol. For cDNA synthesis, MMLV reverse transcriptase (Promega, Madison, WI, USA) was used. The reverse transcription reaction was performed with ProFlex PCR System (Applied Biosystems, Foster City, CA, USA). The QuantStudio 7 Flex (Applied Biosystems, Foster City, CA, USA) was employed for the real-time PCR (qPCR). The following Taq-Man human probes (Applied Biosystems) were used for qPCR reaction: VEGFA (Hs00173626_m1), VIM (001855284_m1), MMP-2 (Hs00234422_m1), MMP-9 (Hs00234579_m1) and GAPDH (Hs99999905_m1). Blank qPCR Master Mix (EURx) was used according to the manufacturer’s instructions. Expression data were normalized on the mean housekeeping gene (GAPDH) as a reference. mRNA expressions were obtained with the 2^−ΔΔCt method and relative expression values were presented, as previously published.

[6] = tested on: Glutathione Peroxidase (GPx); assay: Extracellular glutathione peroxidase activity in CHO-K1 culture medium; format: cell-based
Experimental: (§2) Glutathione peroxidase (GPx) activity was assayed spectrophotometrically in culture medium and enzyme function against reactive oxygen species was investigated according to Adachi et al., Comhair et al. and Howie et al. with modification of Zagrodzki, using hydrogen peroxide (H2O2) as a substrate. For experiment, cell cultures of CHO-K1 and Hep G2 cells were established with initial density of the cells as 2 × 10^4 cells/well. Then, the cells were exposed to 50 µM/L of each chemical for 24 h (control cells were incubated with 1% v/v of DMSO) and cell media were collected. Briefly, the samples were incubated with mixture of sodium azide, glutathione reductase, glutathione, reduced β-nicotinamide adenine dinucleotide phosphate (NADPH) and sodium phosphate (pH 7.6) for 2 min at 25 °C and the reaction was initiated by the addition of H2O2. NADPH was converted to NADP and the amount of the product was proportional to GPx activity. The decrease in absorbance at 340 nm over 3 min was recorded using a microplate reader Infinite M200 Pro, Tecan, Austria. The mean value was calculated and expressed as U/L of the cell culture medium.

[7] = tested on: matrix metalloproteinase-2 (MMP-2) mRNA; assay: Real-Time PCR (qPCR) gene expression in Hep G2 cells, MMP-2; format: cell-based, human
Experimental: as §1

HepG2 cells [8] = assay: Cell growth assessment (cell counting), tumour cells; format: cell-based; conditions: HepG2, 50 µM/L, 72 h incubation
Experimental: (§3) For experiments, the cells were seeded at low density (3 × 10^3/mL) into the 6-well plates (Sarstedt, Numbrecht, Germany) and kept for 24 h. Then, the medium was replaced for new one, containing 50 µM/L of tested compound or 1% v/v of DMSO (control). The time points of incubations were set at 24, 48 or 72 h. At the end of each experiment, the cells were gently detached with Trypsin-EDTA solution (Life Technologies), suspended with appropriate growth medium with addition of 10% v/v FBS and centrifuged at 350× g for 5 min. Finally, the cells were suspended in buffered PBS (Sigma-Aldrich) and counted.

Hep G2 cells [9] = assay: Apoptosis and necrosis detection by flow cytometry, tumour cells; format: cell-based; conditions: Hep G2, 50 µM/L, 24 h, Annexin V/EthD-III flow cytometry
Experimental: (§4) For flow cytometry analyses, CHO-K1 and Hep G2 cells were plated in triplicates into 6-well plates (Sarstedt) at a density of 2 × 10^4 cells per well. The cells were treated for 24 h with tested complexes/comparator salts at concentration of 50 µM/L. Control cells were exposed to DMSO (1% v/v)for 24 h. Then, the cells were detached using Trypsin-EDTA solution, washed with buffered PBS (Lonza, Walkersville, MD, USA), centrifuged at 350× g for 5 min and suspended in binding buffer. Flow cytometry analysis was performed according to the manufacturer’s instructions (Biotium, Hayward, CA, USA). Fluorescent dyes, 488-AnnexinV (excitation maximum at 490 nm/emission maximum at 515 nm) and/or Ethidium homodimer (EthD-III; excitation maximum at 528 nm/emission maximum at 617 nm) were added to cell suspensions. To correct discrimination between cells and debris, SYTO 41 Blue Fluorescent Nucleic Acid Stain was used (excitation maximum at […]). The cells were incubated in dark for 15 min with appropriate dye/dyes and analysed using flow cytometer FACSCanto10C with BD FACSDiva 8.1 System Software (BD Biosciences Immunocytometry Systems, San Jose, CA, USA). The cells were gated according to forward (FSC), side scatter (SSC) and fluorescence parameters (FITC channel was used for 488-AnnexinV and Texas Red channel was used for EthD-III). The results are given as the percentage of apoptotic or necrotic cells of total counted cells.

vimentin (Vim) mRNA = assay: Real-Time PCR (qPCR) gene expression in Hep G2 cells, vimentin; format: cell-based, human; conditions: Hep G2, 50 μM/L, 24 h, normalized to GAPDH
Experimental: as §1

HepG2 cells [10] = assay: Trypan blue exclusion test, tumour cells; format: cell-based; conditions: HepG2, 50 µM/L, p < 0.01 vs. control; for Viable cells vs. control (trypan blue exclusion): 24 h exposure; for Cytotoxicity / cell viability vs. control (trypan blue exclusion): 72 h exposure
Experimental: (§5) CHO-K1 and HepG2 cells were seeded into 6-well plates (Sarstedt, Numbrecht, Germany) at a density of 2 × 10^4 cells/well and then incubated for 24 h. The cell monolayers were washed with PBS solution (Sigma-Aldrich) and medium in each well was replaced with a new one, with addition of 50 µM/L of tested compound. Then, the cells were incubated in standard conditions for 24, 48 or 72 h. The cells cultured in the medium with addition of 1% v/v DMSO (Sigma-Aldrich) were positive controls (100% of growth). After incubation, the cells were detached using Trypsin-EDTA solution (Life Technologies) and suspended in buffered PBS (Sigma-Aldrich). Trypan Blue Exclusion dye (0.4% v/v, Sigma-Aldrich, Germany) was added to each cell culture and samples were kept at room temperature for 5 min. Then, the numbers of live cells (unstained) and dead cells (blue) in each population exposed to tested chemicals/dissolvent were measured with an automatic cell counter.

[11] = tested on: vascular endothelial growth factor a (VEGFa) mRNA; assay: Real-Time PCR (qPCR) gene expression in Hep G2 cells, VEGFa; format: cell-based, human; conditions: Hep G2, 50 μM/L, 24 h, normalized to GAPDH
Experimental: as §1

CHO-K1 cells [12] = assay: Trypan blue exclusion test, noncancerous cells; format: cell-based; conditions: CHO-K1, 50 µM/L, 24 h exposure, p < 0.05 vs. control
Experimental: as §5

CHO-K1 cells [13] = assay: Apoptosis and necrosis detection by flow cytometry, noncancerous cells; format: cell-based; conditions: CHO-K1, 50 µM/L, 24 h, Annexin V/EthD-III flow cytometry
Experimental: as §4

CHO-K1 cells [14] = assay: Cell growth assessment (cell counting), noncancerous cells; format: cell-based; conditions: CHO-K1, 50 µM/L, 72 h incubation
Experimental: as §3

[15] = tested on: Glutathione Peroxidase (GPx); assay: Extracellular glutathione peroxidase activity in Hep G2 culture medium; format: cell-based; conditions: HepG2 culture medium, 50 μM/L, 24 h
Experimental: as §2

[16] = MTT assay, 72 h exposure, M ± SD
[17] = CHO-K1 culture medium, 50 μM/L, 24 h
[18] = Hep G2, 50 μM/L, 24 h, normalized to GAPDH

SMILES	IC50 (CHO-K1 cells [1]) [µM]	Antiproliferative Index IC50 CHO-K1/IC50 HEP G2 (Hep G2 cells [2]; ratio of MTT IC50 values, 72 h)	Antiproliferative Index IC50 CHO-K1/IC50 HEP G2 (Hep G2 cells [2])	Necrosis (Hep G2 cells [9])	Vim mRNA expression vs. control (vimentin (Vim) mRNA)	Viable cells vs. control (trypan blue exclusion) (HepG2 cells [10])	Cytotoxicity / cell viability vs. control (trypan blue exclusion) (HepG2 cells [10])	VEGFa mRNA expression vs. control [11]	GPx activity vs. control [6, 17]	Viable cells vs. control (trypan blue exclusion) (CHO-K1 cells [12])	IC50 (Hep G2 cells [2]) [µM]	Cell death (apoptosis/necrosis) (CHO-K1 cells [13])	Apoptosis (Hep G2 cells [9])	MMP-9 mRNA expression vs. control [5, 18]	GPx activity vs. control [15]	MMP-2 mRNA expression vs. control [7, 18]	further results
N.N.[Cl][Pt][Cl] [Cisplatin, cisplatin, reference compound]	19.1 ± 2	0.9	–	–	–	–	–	–	–	–	–	–	–	–	–	–	IC50 (Hep G2 cells [3]; [16]): 21.3 ± 2 µM
[Cl-].[Cl-].[Co+2] [CoCl2]	–	–	1.1	–	–	–	–	–	–	–	–	–	–	–	–	–	IC50 (CHO-K1 cells [4]): 176 µM; MMP-9 mRNA expression vs. control [5]: did not changed transcript level for MMP-9; GPx activity vs. control [6]: did not exert any effect; MMP-2 mRNA expression vs. control [7]: decreased mRNA for MMP-2; IC50 (Hep G2 cells [3]): 160 µM
CO.Cc1cc(C)n(CNCn2nc(C)cc2C)n1.Cc1cc(C)n(CNCn2nc(C)cc2C)n1.[Co+2].[I-].[I-] [Complex 1, [Co(L^D)2]I2∙CH3OH]	122 ± 10	5.5	–	caused mainly necrotic cell death	decreased Vim expression	statistically significant decrease in viable cells	statistically significant toxic effect; also recorded: greatest decrease in Hep G2 cell viability	significantly hampered VEGFa expression	elevated the enzyme activity	statistically significant decrease in viable cells	22 ± 4	minor	–	–	–	–	Cell growth vs. control (HepG2 cells [8]): greatest inhibitory effect
Cc1cc(C)n(CNCn2nc(C)cc2C)n1.[Co+2].[N-]=C=S.[N-]=C=S [Complex 2, [CoL^D(NCS)2]]	268 ± 15	–	7.0	caused mainly necrotic cell death	–	statistically significant decrease in viable cells	statistically significant toxic effect	significantly hampered VEGFa expression	elevated the enzyme activity	statistically significant decrease in viable cells	38.2 ± 5	minor	–	–	–	–	Cell growth vs. control (CHO-K1 cells [14]): lowest inhibitory potency
Cc1cc(C)n(CNCn2nc(C)cc2C)n1.Cc1ccccc1.[N-]=C=S.[N-]=C=S.[O]=[V+2] [Complex 3, [VOL^D(NCS)2]∙C6H5CH3]	123 ± 3	2.7	–	–	decreased Vim expression	statistically significant decrease in viable cells	statistically significant toxic effect	significantly hampered VEGFa expression	did not disturb antioxidant enzyme activity	statistically significant decrease in viable cells	45.6 ± 5	minor	most active promotor of apoptosis	greatest inhibitory effect	decreased GPx activity	greatest inhibitory effect	–
O=S(=O)([O-])[O-].[O]=[V+2] [VOSO4, reference compound]	–	1.3	–	–	–	–	–	–	–	–	75.6 ± 8	–	much weaker than complex 3	did not exert any effect	elevated the enzyme activity	did not exert any effect	IC50 (CHO-K1 cells [4]; [16]): 98.3 ± 9 µM
